Data on 1 molecule can be found in patent publication US7625913B2, “Pyrazole compounds useful as protein kinase inhibitors” (Vertex Pharmaceuticals Incorporated, priority 2000, dated 2009).

Each structure is given as a SMILES string. pKi: −log10 of the molar value.

The target in one data set is CDK-2/Cyclin A (Homo sapiens, UniProt P24941). In words: CDK-2 inhibition assay (coupled enzyme assay). Conditions: 25 nM CDK-2/Cyclin A, 30° C. In kind it is biochemical. The protocol: Compounds were screened in the following manner for their ability to inhibit CDK-2 using a standard coupled enzyme assay (Fox et al (1998) Protein Sci 7, 2249).
To an assay stock buffer solution containing 0.1M HEPES 7.5, 10 mM MgCl2, 1 mM DTT, 25 mM NaCl, 2.5 mM phosphoenolpyruvate, […], 30 mg/ml pyruvate kinase, 10 mg/ml lactate dehydrogenase, 100 mM ATP, and 100 μM peptide ([…], American Peptide, Sunnyvale, Calif.) was added a DMSO solution of a compound of the present invention to a final concentration of 30 μM. The resulting mixture was incubated at 30° C. for 10 min.
The reaction was initiated by the addition of 10 μL of CDK-2/Cyclin A stock solution to give a final concentration of 25 nM in the assay. The rates of reaction were obtained by monitoring absorbance at 340 nm over a 5-minute read time at 30° C. using a BioRad Ultramark plate reader (Hercules, Calif.). The Ki values were determined from the rate data as a function of inhibitor concentration.

A further data set deals with T1, GSK-3β (AA 1-420) (Homo sapiens, UniProt P49841).
T1 construct: GSK-3β (AA 1-420)
In words: Ki determination for the inhibition of GSK-3 (coupled enzyme system). In kind it is biochemical. The following applies: 20 μM ATP, 300 μM peptide, 20 nM GSK-3β, 30° C. How it is done:
Reactions were carried out in a solution containing 100 mM HEPES (pH 7.5), 10 mM MgCl2, 25 mM NaCl, 300 μM NADH, 1 mM DTT and 1.5% DMSO. Final substrate concentrations in the assay were 20 μM ATP (Sigma Chemicals, St Louis, Mo.) and 300 μM peptide (HSSPHQS(PO3H2)EDEEE, American Peptide, Sunnyvale, Calif.). Reactions were carried out at 30° C. and 20 nM GSK-3β. Final concentrations of the components of the coupled enzyme system were 2.5 mM phosphoenolpyruvate, 300 μM NADH, 30 μg/ml pyruvate kinase and 10 μg/ml lactate dehydrogenase.
An assay stock buffer solution was prepared containing all of the reagents listed above with the exception of ATP and the test compound of interest. […] The reaction was initiated by the addition of 20 μl of ATP (final concentration 20 μM). Rates of reaction were obtained using a Molecular Devices Spectramax plate reader (Sunnyvale, Calif.) over 10 min at 30° C. The Ki values were determined from the rate data as a function of inhibitor concentration.

A further data set addresses T2, Aurora-2 (Homo sapiens, UniProt O14965).
T2 sequence (O14965 1-403): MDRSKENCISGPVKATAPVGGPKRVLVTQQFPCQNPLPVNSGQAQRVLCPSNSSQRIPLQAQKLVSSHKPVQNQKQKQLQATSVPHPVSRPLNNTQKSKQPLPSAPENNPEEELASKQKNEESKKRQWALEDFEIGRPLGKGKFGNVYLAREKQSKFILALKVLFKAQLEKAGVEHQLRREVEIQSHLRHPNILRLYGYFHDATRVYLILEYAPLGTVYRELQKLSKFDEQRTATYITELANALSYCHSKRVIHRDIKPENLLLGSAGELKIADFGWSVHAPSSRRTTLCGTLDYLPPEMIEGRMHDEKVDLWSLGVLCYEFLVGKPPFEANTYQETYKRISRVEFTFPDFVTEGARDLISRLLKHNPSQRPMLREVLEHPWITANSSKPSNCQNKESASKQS
As to the kind of experiment: Ki determination for the inhibition of Aurora-2 (coupled enzyme assay). In kind it is biochemical. The following applies: 70 nM Aurora-2, peptide LRRASLG, 30° C. How it is done:
To an assay stock buffer solution containing 0.1M HEPES 7.5, 10 mM MgCl2, 1 mM DTT, 25 mM NaCl, 2.5 mM phosphoenolpyruvate, […], 30 mg/ml pyruvate kinase, 10 mg/ml lactate dehydrogenase, 40 mM ATP, and 800 μM peptide (LRRASLG, American Peptide, Sunnyvale, Calif.) was added a DMSO solution of a compound of the present invention to a final concentration of 30 μM. The resulting mixture was incubated at 30° C. for 10 min. The reaction was initiated by the addition of 10 μL of Aurora-2 stock solution to give a final concentration of 70 nM in the assay. […] The Ki values were determined from the rate data as a function of inhibitor concentration.

T1 sequence (P49841 whole entry, the tested form may be a part): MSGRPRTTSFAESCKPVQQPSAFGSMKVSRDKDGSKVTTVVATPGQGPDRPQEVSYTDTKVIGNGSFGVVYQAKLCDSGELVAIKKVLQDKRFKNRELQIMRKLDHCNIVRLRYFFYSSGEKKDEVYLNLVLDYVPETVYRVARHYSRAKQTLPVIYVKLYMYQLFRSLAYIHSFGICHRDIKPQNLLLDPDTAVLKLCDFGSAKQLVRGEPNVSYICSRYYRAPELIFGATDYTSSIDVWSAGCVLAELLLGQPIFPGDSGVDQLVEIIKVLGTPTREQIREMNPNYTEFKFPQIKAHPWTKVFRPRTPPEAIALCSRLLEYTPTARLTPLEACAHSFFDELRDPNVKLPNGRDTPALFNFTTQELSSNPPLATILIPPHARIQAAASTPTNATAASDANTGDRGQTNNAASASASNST

With `COc1ccc2c(Nc3cc(C)n[nH]3)nc(Sc3ccc(NC(C)=O)cc3)nc2c1` [IIa-40, [2-(4-Acetamidophenylsulfanyl)-7-methoxy-quinazolin-4-yl]-(5-methyl-2H-pyrazol-3-yl)-amine], the melting point was 291 to 293 °C. The molecule also showed a pKi on CDK-2/Cyclin A of 4.70 to 6.00. This molecule gave a negative-log Ki (pKi) at GSK-3β (AA 1-420) of 5.15 to 6.00. Moreover, on Aurora-2, the pKi is above 7.00.

By pKi is commonly meant the negative decadic logarithm of the Ki, by convention in mol/L. As usually defined, the melting point is the temperature of the solid-liquid transition.
